Here are results for 1 substance from patent US6815419B1, “Antiulcer agent” (Morinaga Milk Industry Co., Ltd., priority 1999, dated 2004).

One data set has as its system stress-induced ulcers. The data set is described as follows: Test Method 2: stress-induced ulcers in rats (restraint and water immersion, Takagi and Okabe). The settings on record: test group 3; sum of scores of ten rats; oral 10 mg/kg, 1 mg/ml; 7 hours restraint in water at 23° C.; blank 50. In kind it is in vivo, Wistar rats. As to the method:
(§1) Male Wistar rats weighing 230 to 270 g, 11 weeks old, (purchased from Japan SLC CO., Ltd.) were randomly classified into six groups (each consisting of ten rats).
(§2) As test agents (antiulcer agents including α-lactalbumin of the present invention as an active ingredient), commercially available α-lactalbumin (manufactured by Sigma Co., Ltd.) was dissolved in distilled water to a concentration of 1 mg/ml to be used. As a test agent for a blank test, distilled water was used.
This experiment was carried out in a manner identical to Method 1 described above, except that ulcers were induced according to the method described by Takagi and Okabe (Japanese Journal of Pharmacology, volume 18, pages 9 to 18, 1968). That is, rats fasted for 24 hours were orally administered with each test agent including at a dose of 10 mg/kg of an active ingredient in body weight (test group number 3). The test agent for a blank test was orally administered to rats in an amount of 10 ml/kg body weight (test group number 4). After 30 minutes, each rat was held in a stainless steel restrictive cage, and was left in a water tank at 23° C., standing and submerging to the depth of the bottom of the breast xiphoid process of the rat.
After 7 hours, each rat was pulled up from the water tank, and the degree of ulcers was measured in a manner identical to Method 1 described above.

The test system of data set [1] is hydrochloric acid and ethanol induced lesions on the mucous membrane of the stomach. Put plainly: Hydrochloric acid and ethanol induced ulcer in rats (method of Robert et al.), stomach examined after 1 hour. In kind it is in vivo, Wistar rats. The settings on record: for Cumulative degree of lesions on mucous membrane: blank 60. As to the method: Male Wistar rats weighing 230 to 270 g, 11 weeks old, (purchased from Japan SLC CO., Ltd.) were randomly classified into five groups (each consisting of ten rats).
The experiment was carried out according to the method disclosed by Robert et al. (Gastroenterology, volume 77, pages 433 to 443, 1979). That is, rats were fasted for 24 hours and were orally administered with each test agent at a dose of 10 mg/kg of an active ingredient in body weight. Test agent 1 for a blank test was orally administered to the rats in an amount of 10 ml/kg body weight. After 30 minutes, hydrochloric acid and ethanol solution [hydrochloric acid and ethanol solution (M=mol/dm^3) prepared by mixing 500 mM of hydrogen chloride (HCl) solution and 75% ethanol solution at a volume ratio of […])] was orally administered to the rats at a dose of 5 ml/kg body weight.
After 1 hour, the rats were killed by ether inhalation, the stomach of each rat was taken out to the body surface, the pyloric part of the stomach was ligated, and then the stomach was removed. Then, 10 ml of 2% formalin solution was injected into the stomach from the cardiac part thereof, and the stomach was subsequently immersed in the formalin solution for 10 minutes for fixation. Then, the curvatura ventriculi major of the stomach fixed by formalin was cut to open, and the degree of ulcers was measured by the following method.
That is, the total area of injured portions on the mucous membrane of each rat was measured, and then the degree of lesions on the mucous membrane of each rat (score) was classified into six grades as shown in Table 1 in accordance with the total area of the injured portion.
This experiment was carried out in a manner identical to Example 1, except that α-lactalbumin included in the test agents as an active ingredient was respectively orally administered at a dose of 0 mg/kg body weight (blank test), 1 mg/kg body weight, 10 mg/kg body weight, or 100 mg/kg body weight.
This experiment was carried out in a manner identical to Example 1, except that α-lactalbumin included as an active ingredient in each test agent was respectively orally administered at a dose of 10 mg/kg body weight. The dose for the blank test was 0 mg/kg body weight.

The next data set concerns CD (SD) rats. Put plainly: Acute toxicity of single oral administration in rats. The conditions noted are these: for Number of deaths/Total number, Female: female rats; for Number of deaths/Total number, Male: male rats. In kind it is in vivo. As to the method:
Male and Female CD (SD) rats, 6 weeks old, purchased from Japan SLC CO., Ltd.) were respectively and randomly classified into three groups (each consisting of five rats) to be used for this experiment.
Commercially available α-lactalbumin (manufactured by Sigma Co., Ltd.) was dissolved in water for injection (manufactured by Otsuka Pharmaceutical Co., Ltd.) to each of a concentration of 100 mg/ml and 200 mg/ml, which were respectively and orally administered in an amount of 1 ml per 100 g of body weight (at each dose of 1000 mg and 2000 mg per 1 kg of rat body weight) to each rat of each group by single oral instillation by means of a metal probe with a rounded tip, in order to examine the acute toxicity. As a blank test, only water for injection (manufactured by Otsuka Pharmaceutical Co., Ltd.) was administered in the same way to each rat of both groups of males and females.

In data set [2] the test system is ulcers caused by indomethacin. The data set is described as follows: Test Method 3: ulcers caused by a nonsteroidal anti-inflammatory drug (indomethacin) in rats. In kind it is in vivo, Wistar rats. The conditions noted are these: test group 5; sum of scores of ten rats; oral 10 mg/kg, 1 mg/ml; 7 hours after indomethacin 30 mg/kg oral; blank 50. As to the method:
as §1, §2
This experiment was carried out in a manner identical to Method 1 described above, except that ulcers were induced in accordance with the method of Okabe, et al. (Japanese Journal of Pharmacology, volume 29, pages 670 to 673, […]). That is, rats fasted for 24 hours were orally administered with the each test agent at a dose of 10 mg/kg of an active ingredient in body weight (test group number 5). The test agent for a blank test was orally administered to each rat in an amount of 10 ml/kg body weight (test group number 6). After 30 minutes, indomethacin at a dose of 30 mg/kg body weight, which is a representative nonsteroidal anti-inflammatory drug, was orally administered.
After 7 hours, the degree of ulcers was measured in a manner identical to Method 1 described above.

Another data set relates to alcohol-induced ulcers. Put plainly: Test Method 1: alcohol-induced ulcers in rats, stomach examined after 7 hours. The format is in vivo, Wistar rats. The settings on record: test group 1; sum of scores of ten rats; oral 10 mg/kg, 1 mg/ml; 7 hours after HCl/ethanol; blank 50. As to the method: as §1, §2
This experiment was carried out according to the method disclosed by Robert et al. (Gastroenterology, volume 77, pages 433 to 443, 1979) in a manner similar to Example 1. That is, rats fasted for 24 hours were orally administered with each test agent at a dose of 10 mg/kg of an active ingredient in body weight (test group number 1). The test agent for a blank test was orally administered to rats in an amount of 10 ml/kg in body weight (test group number 2). […]
After 7 hours, the rats were killed by ether inhalation, the stomach of each rat was taken out to the body surface, the pyloric part of the stomach was ligated, and then the stomach was removed. […] Then, the curvatura ventriculi major of the stomach fixed by formalin was cut to open, and the degree of ulcers was measured in a manner identical to Example 1.

Regarding α-lactalbumin, the “Cumulative degree of lesions on mucous membrane” value in the data set on stress-induced ulcers amounted to 12; in data set [1] (sum of scores (0-6, Table 1) of ten rats, oral 10 mg/kg active ingredient, 1 mg/ml, 30 min before HCl/ethanol), 7; in data set [1] (sum of scores of ten rats, concentration 0.25 mg/ml, oral dose 10 mg/kg), 30; in data set [1] (sum of scores of ten rats, concentration 0.5 mg/ml, oral dose 10 mg/kg) it was 13; in data set [1] (sum of scores of ten rats, concentration 1 mg/ml, oral dose 10 mg/kg), 7; in data set [1] (sum of scores of ten rats, concentration 5 mg/ml, oral dose 10 mg/kg), 5. Besides, the “Cumulative degree of lesions on mucous membrane” value in data set [1] (sum of scores of ten rats, concentration 10 mg/ml, oral dose 10 mg/kg) turned out to be 5; in data set [1] (sum of scores of ten rats, oral dose 1 mg/kg, 1 mg/ml), 47; in data set [1] (sum of scores of ten rats, oral dose 10 mg/kg, 1 mg/ml), 7; in data set [1] (sum of scores of ten rats, oral dose 100 mg/kg, 1 mg/ml), 3; in data set [2] it was 23; in the data set with alcohol-induced ulcers, 6. Moreover, the “Concentration of test agent that shows antiulcer effects” value in data set [1] (oral dose fixed at 10 mg/kg) is on record as “no less than 0.5 mg/ml”. The “Concentration of test agent that shows significant antiulcer effects” value in data set [1] (oral dose fixed at 10 mg/kg) is “no less than 1 mg/ml”. For the same substance, the “Effective dose for oral administration” value in data set [1] (rats, oral, significant antiulcer effects) is given as “no less than 10 mg per 1 kg of body weight”. For the same substance, the “Number of deaths/Total number, Female” value in the data set on CD (SD) rats (single oral dose 1000 mg/kg) and in the data set on CD (SD) rats (single oral dose 2000 mg/kg) was 0/5 throughout. Moreover, the “Number of deaths/Total number, Male” value with CD (SD) rats (single oral dose 1000 mg/kg) and in the data set on CD (SD) rats (single oral dose 2000 mg/kg) was 0/5 each time. In addition, the LD50 result in the data set with CD (SD) rats (rats, single oral administration) is “no less than 2000 mg/kg body weight”.
